Results reported in EP0366226A1, “Stabilized thiocarbonate solutions and the use thereof for controlling soil pests” (UNION OIL COMPANY OF CALIFORNIA, priority 1988, dated 1990).
Marks after values point to notes of the source that are not given here.

Key:
[1] = Degradation time in sandy loam soil at different moisture (CS2 in air space by gas chromatography); assay type: physicochemical
Protocol: A sandy loam soil was placed in 1-liter glass bottles, fitted with stoppers having fluorocarbon liners and silicone rubber septa, to give a soil depth of about 4 cm. Water was added to the soil, in quantities to obtain 50 and 100 percent soil saturation. Thiocarbonate solution or carbon disulfide was then injected near the bottom of the soil layer, the bottles were promptly sealed, and the air space in the bottles was sampled at intervals with a syringe, for gas chromatographic analysis of CS₂. The results are summarized below, wherein degradation time is the number of hours required to achieve the maximum CS₂ concentration in the air space.

[2] = Effect of pH on production of CS2 from thiocarbonates in citrate-phosphate buffers (gas chromatography of air); assay type: physicochemical
Protocol: Pure carbon disulfide was also injected, for comparison. A syringe was used to periodically sample air in the bottle, and the air was analyzed by gas chromotography.

[3] = Rate of carbon disulfide loss from solutions on nitrogen bubbling (mass spectrometer); assay type: physicochemical; conditions: undiluted (pure CS2; Ex. 1 100%)
Protocol: The rate at which carbon disulfide is lost from diluted ammonium thiocarbonate compositions was determined by bubbling nitrogen through the solutions and measuring the carbon disulfide content of the gas which leaves the solution using a mass spectrometer.
In the determination, the solution, corresponding to that of Example 1 (containing 14.1 percent by weight carbon disulfide), was compared to pure carbon disulfide, and to serial dilutions of the Example 1 solution with water, which were 10, 1 and 0.1 volume percent solutions of the original composition. The results are tabulated below, wherein k is the calculated first order rate constant for loss of carbon disulfide, and t is the solution half-life.

Fusarium spp. = assay: Petri dish tests in potato dextrose agar and broth; assay type: cell-based; conditions: when the broth also contained Trichoderma spp., read-out: solution concentration with which control was obtained
Description: In petri dish tests of CaCS₄ against the fungus Fusarium spp., control with solutions containing less than about 10 grams per liter of the compound, in both potato dextrose agar and potato dextrose broth, was obtained using the solution when the broth also contained another fungus, Trichoderma spp.

Sclerotium rolfsii = assay: Fungicidal test, radial growth of mycelia from treated agar blocks; assay type: cell-based; conditions: listed as CaCS₄ (2.8%CS₂)
Protocol: (§1) Thiocarbonate solutions were used in a test of their fungicidal properties. Cultures of four plant pathogenic fungi were grown upon potato dextrose agar at room temperature, in diffuse natural lighting. After one week, square blocks having 2 millimeter sides were cut from the edges of actively drawings mycelia spots on the agar.
(§2) The blocks were immersed in sterile deionized water, as a control, or in dilutions of thiocarbonate solutions using the sterile water, in a closed container. Subsequently, the blocks were removed and placed upon agar in clean plates, and mycelia were allowed to grow for one week.
(§3) Radial growth of mycelia colonies was measured for each of the six to eight replicate plates used for a particular fungus, and average colony radius was calculated. Percent control is defined by the following equation: […]
(§4) Concentrations given for solutions used to treat the agar blocks are expressed in grams of thiocarbonate solution per liter of diluted solution.

Fusarium oxysporum = assay: as above; assay type: cell-based; conditions: listed as CaCS₄ (2.8%CS₂)
Protocol: as §1, §2, §3, §4

Verticillium dahliae = assay: as above; assay type: cell-based; conditions: listed as CaCS₄ (2.8%CS₂)
Protocol: as §1, §2, §3, §4

Phytophthora cinnamomi = assay: as above; assay type: cell-based; conditions: listed as CaCS₄ (2.8%CS₂)
Protocol: as §1, §2, §3, §4

[4] = Solvency of aqueous thiocarbonate solutions for urea; assay type: physicochemical; conditions: 41.5 percent by weight aqueous solution; room temperature
Protocol: Urea was added to a 41.5 percent, by weight, aqueous solution of calcium tetrathiocarbonate until the solubility limit of urea was reached. At room temperature, the solution dissolved 122 percent by weight urea. The resulting solution was 55 percent urea, 18.6 percent calcium tetrathiocarbonate, and 26.3 percent water, by weight. Thus, the solvency of the aqueous solution of calcium tetrathiocarbonate for urea was at least as great as that of water alone. Similarly, a 46 percent solution of potassium tetrathiocarbonate dissolved 100 percent of its own weight of urea. Similar results were obtained with other tri- and tetrathiocarbonates of alkali metal and alkaline earth metals.

[5] = system: sugar beet cyst nematodes (Heterodera spp.); assay: Soil treatment of infested sugar beets; assay type: in vivo; conditions: about 94 kilograms per hectare, dissolved in irrigation water
Protocol: Sugar beets, infested with sugar beet cyst nematodes (Heterodera spp.), were treated by application to the soil of about 94 kilograms per hectare of CaCS₄, dissolved in irrigation water.

[6] = system: nitrification of ammoniacal fertilizers in soil; assay: Inhibition of nitrification of urea in sandy loam soil plots; conditions: 5 weight percent solution at 100 liters per acre after 200 lbs. urea per acre; versus untreated plot
Description: The ability of the described thiocarbonate compounds to inhibit nitrification of ammoniacal fertilizers in soil can be illustrated by applying to two separate plots of sandy loam soil a urea solution in irrigation water at a rate corresponding to 200 lbs. urea per acre with sufficient water to increase the soil water content to at least 50 percent. This application can be followed, on one of the plots treated with the urea solution and within one hour of application of the urea solution, with application of an aqueous solution containing 5 weight percent calcium tetrathiocarbonate applied at a rate of 100 liters per acre in sufficient irrigation water to increase the soil water content to 100 percent of saturation.

[7] = system: root-knot nematode larvae; assay: Greenhouse nematocide experiment with tomato plants, root gall count; assay type: in vivo; conditions: Application 50 ppm; mean of four replicates; asterisk = statistically indistinguishable
Description: (§5) Eighty containers were used, each containing about 500 grams of sterilized sandy loam soil. Each container was given four 5-milliliter injections of extract from nematode-infested pepper roots, one inch below the soil surface, producing an initial population of 2000 root-knot nematode larvae per container.
(§6) Twenty treatments were replicated four times, each treatment consisting of solution injection into the soil at a two inch depth. The treatments included each of the six compositions from Example 3 at three levels, plus one level of the known nematocide 1,2-dibromo-3-chloropropane (DBCP), and a control with only water injected. After injection, each container was enclosed in a plastic bag and placed in the shade for three days. Upon removing the bags, the soils were aerated by stirring and were allowed to stand undisturbed for eight additional days. Following an additional aeration, a tomato seedling was planted in eac pot.
(§7) Each container received 25 milligrams nitrogen (as calcium nitrate) immediately after planting, followed by 2 grams of a slow release complete fertilizer. […] By use of a magnifying glass, the number of root galls was counted on each plant. […]
(§8) The results are shown in the following table, in which the "Application" represents milligrams of treatment per kilogram of soil, calculated as contained carbon disulfide for the Example 3 solutions. […]

tomato plants = assay: Greenhouse nematocide experiment, plant dry weight / phytotoxicity; assay type: in vivo; conditions: Application 50 ppm; 37 days of growth
Description: as §5, §6, §7, §8

[8] = pH 5.2, 125 milligrams of thiocarbonate ion per liter
[9] = pH 8.0, CaCS4 values above pH 7 called unreliable

## S=C=S [CS₂, carbon disulfide, reference compound]
[1]; Soil Moisture 50 % of Saturation
  Degradation Time: 3.5 h
[1]; Soil Moisture 100 % of Saturation
  Degradation Time: 3.5 h
[2]; [8]
  Half-life (minutes) for production of carbon disulfide: 1 min
[2]; pH 6.0
  Half-life (minutes) for production of carbon disulfide: 1 min
[2]; pH 7.0
  Half-life (minutes) for production of carbon disulfide: 1 min
[2]; [9]
  Half-life (minutes) for production of carbon disulfide: 1 min
[3]
  k, first order rate constant for loss of carbon disulfide: 2.0 h⁻¹

## S=C(S)SS [CaCS₄, calcium tetrathiocarbonate]
Fusarium spp.
  minimal effective concentration: < 10000 µg/mL
[1]; Soil Moisture 0 % of Saturation, hours to maximum CS2 concentration in the air space
  Degradation Time: 4 h
Sclerotium rolfsii; 1 g/l
  Percent Control Sclerotium rolfsii: 46%
Sclerotium rolfsii; 10 g/l
  Percent Control Sclerotium rolfsii: 62%
Fusarium oxysporum; 1 g/l
  Percent Control Fusarium oxysporum: 3%
Fusarium oxysporum; 10 g/l
  Percent Control Fusarium oxysporum: 18%
Fusarium oxysporum; 100 g/l thiocarbonate solution per liter of diluted solution
  Percent Control Fusarium oxysporum: 100%
Verticillium dahliae; 1 g/l
  Percent Control Verticillium dahliae: 13%
Verticillium dahliae; 10 g/l
  Percent Control Verticillium dahliae: 22%
Phytophthora cinnamomi; 1 g/l
  Percent Control Phytophthora cinnamomi: 56%
Phytophthora cinnamomi; 10 g/l
  Percent Control Phytophthora cinnamomi: 56%
[4]
  urea dissolved by the solution: 122 percent by weight
[2]; [8]
  Half-life (minutes) for production of carbon disulfide: 1 min
[2]; pH 6.0
  Half-life (minutes) for production of carbon disulfide: 1.8 min
[2]; pH 7.0
  Half-life (minutes) for production of carbon disulfide: 2.7 min
[2]; [9]
  Half-life (minutes) for production of carbon disulfide: 8.0 min
[5]
  counts and viability of nematode larvae in the soil following treatment: remained high, but the larvae were not viable
[6]
  nitrification of urea in the treated soil: nitrified more slowly

## ClCC(Br)CBr (stereo not shown) [DBCP, 1,2-dibromo-3-chloropropane]
[7]
  Gall Count: 0*
Tomato plants
  Dry Weight, Grams Roots: 0.273 Grams
  Dry Weight, Grams Total: 1.238 Grams
